Source: patent US20110183995A1, “ELTOPRAZINE FOR SUPPRESSION OF L-DOPA INDUCED DYSKINESIAS” (Neurosearch A/S, priority 2008, published 2011)

Legend:
6-OHDA-lesioned rats = assay: Antidyskinetic effect of Eltoprazine in the rat 6-OHDA model (L-DOPA-induced dyskinesia, total AIM score); assay type: in vivo; settings: for reduction of dyskinesia (total score: limb, axial and orolingual): compared to the control L-DOPA-only treated group, two-hour test
Method: In this experiment we determined the antidyskinetic properties of Eltoprazine.
6-OHDA-lesioned rats were made dyskinetic and allocated into three well-balanced groups (n=6 per group), which were challenge on the day of the experiments with L-DOPA-only, L-DOPA plus Eltoprazine 0.1 mg/kg or L-DOPA plus Eltoprazine 0.3 mg/kg, respectively.
Limb, axial and orolingual dyskinesias were scored over the tow-hour test and the sum is reported here as the total score, and the results are presented in FIG. 4.

PD patients = settings: large phase III clinical trial, terminated; cited from earlier work

Row | Compound | reduction of dyskinesia (total score: limb, axial and orolingual) (6-OHDA-lesioned rats; Eltoprazine 0.1 mg/kg plus L-DOPA) | reduction of dyskinesia (total score: limb, axial and orolingual) (6-OHDA-lesioned rats; Eltoprazine 0.3 mg/kg plus L-DOPA) | suppression of L-DOPA-induced dyskinesia (6-OHDA-lesioned rats; rats, higher dose alone) | clinical antidyskinetic efficacy (PD patients)
1 | c1cc2c(c(N3CCNCC3)c1)OCCO2 [Eltoprazine, 1-(2,3-Dihydro-benzo[1,4]dioxin-5-yl)piperazine] | approximately 50% | near-complete abolishment | near-complete suppression | 
2 | Fc1ccc(-c2cncc(CNC[C@H]3CCc4ccccc4O3)c2)cc1 [Sarizotan] |  |  |  | lack of efficacy
